Results on seven molecules are retold here after PubChem BioAssay (NCI).

Values joined by “and” are separate entries in the source; they are usually repeats but may differ in a detail not shown here. Equal values may be shown once.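 Method: 48-hour compound exposure of cells in 96-well plates, five concentrations, linear interpolation of endpoints. Here, GI50 denotes the concentration required for 50% inhibition of growth. TGI: total growth inhibition.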

Assay in all cases: growth of human tumour cells (NCI), 48 h
Test [1] concerns TK-10 renal.
The test system of test [2] is KM12 colon.
In test [3] the test system is OVCAR-5 ovarian.
In test [4] the test system is HT29 colon.
Test [5] relates to U251 CNS.
Test [6] concerns SF-268 CNS.
For test [7], the system named is MALME-3M melanoma.
The test system of test [8] is RXF 393 renal.
The test system of test [9] is MCF7 breast.
Test [10] concerns SNB-75 CNS.

For the molecule `CCCCC(=O)N/N=C/c1c(O)ccc2ccccc12`, the GI50 in test [1] was 1.82 µM; in [2], 2.28 µM; in test [3] it was 6.97 µM; in test [4], 27.5 µM; in [5], 1.6 µM; in test [6], 0.874 µM. In addition, the GI50 in test [7] was 3.06 µM; in test [8], 2.01 µM; in test [9], 2.09 µM; in test [10], 1.57 µM. Besides, the TGI in [1] is over 24.3 µM; in [2] it was over 100 µM; in test [3] it was over 100 µM; in [4], over 100 µM; in [5], over 100 µM; in [6], over 75 µM. Besides, the TGI was 20.3 µM in test [7], 15.9 µM in test [8], 15.8 µM in test [9] and over 100 µM in test [10].
As to `Cc1cc(C(=O)NC(CCC(=O)O)C(=O)O)sc1CCC1CNc2nc(N)[nH]c(=O)c2C1` (stereo not drawn), the GI50 in test [1] was 0.0355 µM and 0.065 µM; in test [2], 0.0383 µM and 0.0937 µM; in test [3] it was 0.0383 µM and 0.0723 µM; in test [4], < 0.0198 µM and 0.0322 µM; in test [5] it was 0.0368 µM and 0.0439 µM; in [6] it was 0.044 µM and 0.0721 µM. The GI50 in test [8] is 0.015 µM and < 0.0158 µM; in [9], < 0.0114 µM and 0.0346 µM. For the same molecule, the TGI in test [1], in test [2], in test [3], in test [4], in test [5] and in test [6] was over 100 µM in each case. The TGI in test [7], in test [8], in [9] and in [10] was over 100 µM each time.
`C/C=C/[C@H]1O[C@@H]2C(=C[C@H]1O)C(=O)O[C@H]2C`: the GI50 in test [1] was 14.9 µM; in [2], 33.3 µM; in [3] it was 23.2 µM; in test [4] it was 2.19 µM; in test [5], 18.4 µM; in test [6], 30.1 µM. For the same molecule, the GI50 in test [7] is 7.59 µM; in [8] it was 18.9 µM; in test [9] it was 31.2 µM; in test [10], 1.23 µM. The TGI in [1] is 33 µM; in test [2] it was over 78 µM; in test [3], 45.8 µM; in [4] it was 27.4 µM; in [5], 36.8 µM; in [6] it was over 95 µM. The TGI in test [7] was found to be 24.2 µM; in test [8] it was 67.7 µM; in [9], 98 µM; in test [10], 26.4 µM.
With `O=c1c(NO)c([N+](=O)[O-])cnn1-c1ccccc1`, the TGI came out at 33.2 µM in [1]; 23.5 µM in test [2]; 14 µM in test [3]; 6.14 µM in [4]; 8.07 µM in test [5]; 34.2 µM in test [6]. Moreover, the TGI in [7] worked out at 12 µM; in test [8], 12.3 µM; in test [9], 16.5 µM; in [10] it was 28.4 µM.
In the case of `O=S1(=O)CS(=O)(=O)OCCO1`, the TGI in test [1] was determined as 363 µM; in test [2] it was 121 µM; in test [3], 269 µM; in test [4] it was 347 µM; in [5] it was 96.3 µM; in [6], 249 µM. Further, the TGI in test [7] was determined as 214 µM; in test [8] it was 118 µM; in [9], 348 µM; in [10] it was 57.2 µM. For the same molecule, the GI50 in test [5] was 18.2 µM; in test [6], 85.6 µM; in test [8], over 94.8 µM; in test [9], 39.1 µM; in test [10], 56.9 µM.
As for `O=C1C(=O)c2ccccc2C(O)=C1CCCc1ccc(C2CCCCCC2)cc1`, the GI50 in test [1] is 3.14 µM; in test [2], 0.903 µM; in test [3] it was 19.8 µM; in test [4] it was 4.6 µM; in [5] it was 0.687 µM; in test [6], 0.625 µM. For the same molecule, the GI50 was 0.816 µM in [7], 10.2 µM in test [8], 0.513 µM in [9] and 2.5 µM in test [10]. The TGI in [1] was 57 µM; in test [2], 17.2 µM; in test [3] it was over 100 µM; in test [4] it was 27.8 µM; in [5], 25.3 µM; in test [6] it was 26.7 µM. Moreover, the TGI in test [7] was 22.6 µM; in [8], 41.7 µM; in [9], over 49 µM; in [10], 52.2 µM.
On to `COc1cc(N2CCN(C(C)C)CC2)ccc1Nc1nc(Nc2cccc(F)c2C(=O)O)c2cc[nH]c2n1`, for which the GI50 in [1], in test [2], in test [3], in test [4], in test [5] and in [6] was over 25 µM each time. Moreover, the GI50 in test [7], in [8], in [9] and in test [10] was over 25 µM each time. Moreover, the TGI in test [1], in test [2], in test [3], in test [4], in test [5] and in test [6] was over 25 µM in each case. Also, the TGI in [7], in [8], in test [9] and in test [10] was over 25 µM throughout.
